The values below come from patent publication US8436043B2 (Takeda Pharmaceutical Company Limited, priority 2008, dated 2013).

T1 sequence (P47871 26-477): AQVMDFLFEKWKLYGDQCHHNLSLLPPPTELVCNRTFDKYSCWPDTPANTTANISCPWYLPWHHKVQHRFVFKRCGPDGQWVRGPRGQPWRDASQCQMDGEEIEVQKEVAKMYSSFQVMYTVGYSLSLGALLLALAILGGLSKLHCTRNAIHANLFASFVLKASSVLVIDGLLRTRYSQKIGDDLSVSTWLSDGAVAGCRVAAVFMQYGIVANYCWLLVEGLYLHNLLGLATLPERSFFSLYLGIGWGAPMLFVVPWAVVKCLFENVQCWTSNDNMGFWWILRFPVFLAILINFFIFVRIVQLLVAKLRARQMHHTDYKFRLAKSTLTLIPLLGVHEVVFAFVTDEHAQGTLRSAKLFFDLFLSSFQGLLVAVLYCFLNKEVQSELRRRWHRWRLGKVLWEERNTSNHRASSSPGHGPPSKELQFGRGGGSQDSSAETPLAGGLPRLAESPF

The first test addresses T1, human glucagon receptor (Homo sapiens, UniProt P47871).
T1 construct: made in house; host or cells: FreeStyle CHO cells, transient transfection with pMSRαneo/hGCGR; membrane fraction (35,000 rpm pellet)
Description: Glucagon binding inhibitory activity ([125I]-glucagon binding to glucagon receptor membrane protein). The conditions noted are these: test compound 10 μM; 0.4% DMSO = 0%, non-labeled glucagon 1 μM = 100%. The gist of the method:
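Receptor source was a membrane fraction of transiently transfected CHO cells bearing human receptor; 90 min room-temperature binding, filtration harvest, scintillation counting.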
Consider `Cc1c(C(Nc2ccc(C(=O)N(C)CCC(=O)O)nc2)C2CCCCC2)oc2ccc(F)cc12` (stereo not shown) [Example A57], for which the “inhibitory rate (%) at 10 μM” value is recorded as 85%.
Same read-out and setting: as for `Cc1c(C(Nc2ccc(C(=O)N(C)CCC(=O)O)nc2)C2CCCCC2)sc2ccccc12` (stereo not shown) [Example A60, 3-{[(5-{[cyclohexyl(3-methyl-1-benzothiophen-2-yl)methyl]amino}pyridin-2-yl)carbonyl](methyl)amino}propanoic acid], the figure is 85%; as for `Cc1c(C(Nc2ccc(C(=O)N(C)CCC(=O)O)cc2)C2CCCC2)sc2ccccc12` (stereo not shown) [Example A65, 3-{[(4-{[cyclopentyl(3-methyl-1-benzothiophen-2-yl)methyl]amino}phenyl)carbonyl](methyl)amino}propanoic acid], 79%; as for `Cc1c(C(Nc2ccc(C(=O)N(C)CCC(=O)O)cc2)C2CCCC2)oc2ccc(F)cc12` (stereo not shown) [Example A69], 89%.

The test is the same for the next values; noted with them: test compound 10 μM; 0.4% DMSO = 0%, non-labeled glucagon 1 μM = 100%; read-out: inhibitory rate (%) at 10 μM.
With `Cc1c(C(Nc2ccc(C(=O)NCCC(=O)O)nc2)C2CCCCC2)oc2ccc(F)cc12` (stereo not shown) [Example A55, 3-{[(5-{[cyclohexyl(5-fluoro-3-methyl-1-benzofuran-2-yl)methyl]amino}pyridin-2-yl)carbonyl]amino}propanoic acid], the inhibition at 10 µM stood at 90%.
As to `Cc1c(C(Nc2ccc(C(=O)N(C)CCC(=O)O)nc2)C2CCCCC2)oc2ccc(F)cc12` (stereo not shown) [Example A56, 3-{[(5-{[cyclohexyl(5-fluoro-3-methyl-1-benzofuran-2-yl)methyl]amino}pyridin-2-yl)carbonyl](methyl)amino}propanoic acid], the inhibition at 10 µM was 76%.
As to `Cc1c(C(Nc2ccc(C(=O)N(C)CCC(=O)O)nc2)C2CCCCC2)sc2ccccc12` (stereo not shown) [Example A59, 3-{[(5-{[cyclohexyl(3-methyl-1-benzothiophen-2-yl)methyl]amino}pyridin-2-yl)carbonyl](methyl)amino}propanoic acid], the inhibition at 10 µM came to 77%.
Still for that read-out and setting: as for `Cc1c(C(Nc2ccc(C(=O)NCCC(=O)O)nc2)C2CCCCC2)sc2ccccc12` (stereo not shown) [Example A62, 3-{[(5-{[cyclohexyl(3-methyl-1-benzothiophen-2-yl)methyl]amino}pyridin-2-yl)carbonyl]amino}propanoic acid], the figure is 81%; as for `Cc1c(C(Nc2ccc(C(=O)NCCC(=O)O)cc2)C2CCCC2)sc2ccccc12` (stereo not shown) [Example A63, 3-{[(4-{[cyclopentyl(3-methyl-1-benzothiophen-2-yl)methyl]amino}phenyl)carbonyl]amino}propanoic acid], 90%.
On to `Cc1c(C(Nc2ccc(C(=O)N(C)CCC(=O)O)cc2)C2CCCC2)sc2ccccc12` (stereo not shown) [Example A64, 3-{[(4-{[cyclopentyl(3-methyl-1-benzothiophen-2-yl)methyl]amino}phenyl)carbonyl](methyl)amino}propanoic acid], for which the inhibition at 10 µM turned out to be 84%.
The same measure, in the same setting: as for `Cc1c(C(Nc2ccc(C(=O)N(C)CCC(=O)O)cc2)C2CCCC2)oc2ccc(F)cc12` (stereo not shown) [Example A68, 3-{[(4-{[cyclopentyl(5-fluoro-3-methyl-1-benzofuran-2-yl)methyl]amino}phenyl)carbonyl](methyl)amino}propanoic acid], the figure is 82%.
Still for that read-out and setting: as for `CCC(CC)C(Nc1ccc(C(=O)N(C)CCC(=O)O)cc1)c1oc2ccc(F)cc2c1C` (stereo not shown) [Example A72, 3-{[(4-{[2-ethyl-1-(5-fluoro-3-methyl-1-benzofuran-2-yl)butyl]amino}phenyl)carbonyl](methyl)amino}propanoic acid], the figure is 79%; as for `COCCOc1ccc2oc(C(Nc3ccc(C(=O)N(C)CCC(=O)O)cc3)C3CCCCC3)c(C)c2c1` (stereo not shown) [Example A79, 3-[{[4-({cyclohexyl[5-(2-methoxyethoxy)-3-methyl-1-benzofuran-2-yl]methyl}amino)phenyl]carbonyl}(methyl)amino]propanoic acid], 73%.
